Reference: PMC7016953 (Cells, 2020)

What was measured:
[1] = tested on: T1, TRPC3; assay: Microfluorometric single-cell [Ca2+]i analysis, fura-2-loaded HEK cells stably expressing TRPC3; type: cell-based, human; conditions: 50 µM
T1 construct: expressed in transfected cells
Protocol: The microfluorometric single-cell [Ca^2+]i analysis was performed on an inverted epifluorescence microscope (Carl Zeiss, Jena, Germany) and calibrated as described. Cells were grown on 25 mm coverslips and loaded with 4 µM fura-2/AM (AAT Bioquest, Sunnyvale, CA, U.S.A.) in HBS containing 0.2% BSA for 30 min at 37 °C. After gently rinsing the coverslips with HBS, coverslips were mounted in a bath chamber and superfused with HBS containing 0.035% BSA.
Figure 2 Microfluorometric single-cell analysis of artemisinin-induced increases in [Ca^2+]i in fura-2-loaded HEK cells stably expressing TRPC3 (A), TRPC6 (B), or TRPC7 (C). […] Experiments were performed either in standard bath solution, containing 1 mM Ca^2+ (black lines and bars), or in a nominally Ca^2+-free HBS buffer, supplemented with 200 µM EGTA (grey lines and bars). Time courses of averaged responses (left), and statistical analysis of 6–11 independent imaging experiments with means and S.D. (right) are shown. Significant differences (p < 0.05, Student´s t-test with paired data: #, with unpaired data: *) are marked for the indicated comparisons; n.s.: difference is statistically not significant.

[2] = tested on: T2, TRPC6; assay: Whole-cell patch-clamp recordings in HEK TRPC6-YFP cells; type: cell-based, human; conditions: 100 µM artemisinin
T2 construct: expressed in transfected cells
Protocol: (§1) The recordings of TRPC3, TRPC6, or TRPC7 membrane currents in HEK293 or PC12 cells were realized by using a Multiclamp 700B amplifier with a Digidata 1440A digitizer controlled by the PClamp 10 software (all Molecular Devices, Sunnyvale, CA, U.S.A.). Recordings were obtained at room temperature either in the whole-cell or in an outside-out configuration as indicated. Cells were seeded as described above, but at lower density, mounted in a chamber (Warner Instruments, Hamden, CT; U.S.A.), placed onto the stage of an inverted microscope, and perfused with required solution. The standard extracellular solution contained 140 mM NaCl, 5 mM CsCl, 2 mM MgCl2, 1 mM CaCl2, 10 mM HEPES, and 0.035% BSA adjusted to pH 7.4 with NaOH. The composition of standard intracellular solution was 140 mM CsCl, 1 mM MgCl2, 5 mM EGTA, and 10 mM HEPES adjusted to pH 7.25 with CsOH; the osmolarity was 295 mOsm l^−1. In outside-out measurements, the pipette solution contained 5 mM EGTA and 1.1 mM CaCl2 to achieve a calculated free Ca^2+ concentration of 100 nM.
Patch pipettes were pulled from borosilicate glass capillaries BG150F-8P (Science Products, Hofheim, Germany) with a PIP6 pipette puller (HEKA Elektronik, Lambrecht, Germany). […] In all whole-cell measurements, the series resistance was lower than 13 MΩ, and compensated by 70%. […]

[3] = tested on: PC12 cells (native TRPC3 channel complexes); assay: Whole-cell patch-clamp recordings in PC12 cells; type: cell-based, rat; conditions: 50 µM artemisinin, whole cell
Protocol: as §1
Patch pipettes were pulled from borosilicate glass capillaries BG150F-8P (Science Products, Hofheim, Germany) with a PIP6 pipette puller (HEKA Elektronik, Lambrecht, Germany). […] In all whole-cell measurements, the series resistance was lower than 13 MΩ, and compensated by 70%. If the access was unstable during the experiment (increase in series resistance by more than 15% at the end of the experiment), the cell was omitted from the analysis. To record current/voltage (I/V) curves, voltage ramps (400 mV s^−1) ranging from –100 to +100 mV were applied. Currents were filtered at 3 kHz with a four-pole Bessel filter and sampled at 10 kHz. […]
Figure 9 Artemisinin-induced ionic currents in HEK293 cells and in PC12 cells are sensitive to established TRPC3 inhibitors. […] Concentration–response curves were normalized to responses measured without an inhibitor (controls), and IC50 values were obtained by fitting a four-parameter Hill equation to the data. […]

In the case of `C[C@@H]1CC[C@H]2[C@@H](C)C(=O)O[C@@H]3O[C@@]4(C)CC[C@@H]1[C@]32OO4` [artemisinin], the “[Ca2+]i signal in TRPC3-expressing cells in Ca2+-free bath” value ([1]; nominally Ca2+-free HBS with 200 µM EGTA) is reported as “abolished”, the “[Ca2+]i response in TRPC3-overexpressing HEK cells” value ([1]; standard bath 1 mM Ca2+) is reported as “confirmed the responses” and the “ionic currents in TRPC6-expressing HEK cells” value [2] is reported as “remained unaffected”. For the same molecule, the “currents in PC12 cells” value [3] was “induced a Ca^2+ influx and TRPC3-like currents”.
